Experimental data: patent US10676446B2, “Bicyclic quinazolinone derivatives” (Hoffmann-La Roche Inc., priority 2015, dated 2020)

Molecular target: human ATX (autotaxin, ENPP2), His-tagged (Homo sapiens (Human), UniProt Q13822)
Assay: Human ATX enzyme inhibition assay (fluorescence quenching, MR121 substrate)
Type: biochemical
Conditions: 30 nM ATX, 1 μM MR121 substrate, 30° C., pH 8.0
Procedure, shortened: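 His-tagged human ATX (30 nM final) preincubated 15 min at 30 °C with serially diluted compound in Tris-HCl pH 8.0 buffer with Ca2+, Mg2+ and 0.01% Triton X-100. MR121-labelled fluorescence-quenched substrate then added (1 μM final) for a further 15 min at 30 °C; fluorescence read-out.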

SMILES	IC50 [nM]
CO[C@@H](C)C(=O)N1CCC(c2ccc3ncn(CC(=O)N(C)Cc4ccc(C#N)c(Cl)c4)c(=O)c3c2)CC1 [Example 159]	1
CC(=O)N1CCN(c2ccc3ncn(CC(=O)N(C)Cc4ccc(Cl)c(Cl)c4)c(=O)c3c2)CC1 [Example 44]	17
CC(C)CC(=O)N1CCN(c2ccc3ncn(CC(=O)NCc4ccc(Cl)c(Cl)c4)c(=O)c3c2)CC1 [Example 59, N-[(3,4-Dichlorophenyl)methyl]-2-[6-[4-(3-methylbutanoyl)piperazin-1-yl]-4-oxoquinazolin-3-yl]acetamide]	70
CC(=O)N1CCN(c2ccc3ncn(CC(=O)N(C)Cc4cc(Cl)nc(Cl)c4)c(=O)c3c2)CC1 [Example 46]	184
CNC(=O)CC(NC(=O)Cn1cnc2ccc(N3CCN(C(C)=O)CC3)cc2c1=O)c1ccc(Cl)c(Cl)c1 (stereo not drawn) [Example 52, 3-[[2-[6-(4-Acetylpiperazin-1-yl)-4-oxoquinazolin-3-yl]acetyl]amino]-3-(3,4-dichlorophenyl)-N-methylpropanamide]	72
CN(Cc1ccc(Cl)c(Cl)c1)C(=O)Cn1cnc2ccc(N3CCN(C(=O)C4COC4)CC3)cc2c1=O [Example 79]	10
CN(Cc1ccc(Cl)c(Cl)c1)C(=O)Cn1cnc2ccc(C3CCN(C(=O)C4CCOC4)CC3)cc2c1=O (stereo not drawn) [Example 182]	8
COC(C)C(=O)N1CCC(c2ccc3ncn(CC(=O)N(C)Cc4ccc(Cl)c(Cl)c4)c(=O)c3c2)CC1 (stereo not drawn) [Example 173]	8
CC(=O)N1CCN(c2ccc3ncn(CC(=O)NCc4ccc(C#N)nc4)c(=O)c3c2)CC1 [Example 18]	14
CN(Cc1ccc(Cl)c(Cl)c1)C(=O)Cn1cnc2ccc(C3CCN(C(=O)C4COCCO4)CC3)cc2c1=O (stereo not drawn) [Example 178]	34
CN(Cc1ccc(Cl)c(Cl)c1)C(=O)Cn1cnc2ccc(N3CCN(C(=O)C4(C)COC4)CC3)cc2c1=O [Example 80]	12
CC(=O)N1CCC(c2ccc3ncn(CC(=O)NCc4ccc(F)c(C(F)(F)F)c4)c(=O)c3c2)CC1 [Example 162]	44
CC(=O)N1CCC(c2ccc3ncn(CC(=O)N(C)Cc4ccc(C#N)c(Cl)c4)c(=O)c3c2)CC1 [Example 125]	7
CN(Cc1ccc(C#N)c(Cl)c1)C(=O)Cn1cnc2ccc(C3CCN(C(=O)CC#N)CC3)cc2c1=O [Example 154, N-[(3-Chloro-4-cyanophenyl)methyl]-2-[6-[1-(2-cyanoacetyl)piperidin-4-yl]-4-oxoquinazolin-3-yl]-N-methylacetamide]	2
CC(=O)N1CCN(c2ccc3ncn(CC(=O)N(C)Cc4cc(F)c(C#N)c(F)c4)c(=O)c3c2)CC1 [Example 58, 2-[6-(4-Acetylpiperazin-1-yl)-4-oxoquinazolin-3-yl]-N-[(4-cyano-3,5-difluorophenyl)methyl]-N-methylacetamide]	15
CC(=O)N1CCN(c2ccc3ncn(CC(=O)N4CCCC4c4ccc(Cl)cc4)c(=O)c3c2)CC1 (stereo not drawn) [Example 47]	341
CC(=O)N1CCC(c2ccc3ncn(CC(=O)N(C)Cc4ccc(Cl)c(Cl)c4)c(=O)c3c2)CC1 [Example 124]	7
O=C(Cn1cnc2ccc(N3CCN(CCO)CC3)cc2c1=O)NCc1ccc(Cl)c(Cl)c1 [Example 94, N-[(3,4-Dichlorophenyl)methyl]-2-[6-[4-(2-hydroxyethyl)piperazin-1-yl]-4-oxoquinazolin-3-yl]acetamide]	67
CC(=O)N1CCN(c2ccc3ncn(CC(=O)NCc4ccc(C#N)c(Cl)c4)c(=O)c3c2)CC1 [Example 25]	16
CNC(=O)CCN(Cc1ccc(Cl)c(Cl)c1)C(=O)Cn1cnc2ccc(N3CCN(C(C)=O)CC3)cc2c1=O [Example 55, 3-[[2-[6-(4-Acetylpiperazin-1-yl)-4-oxoquinazolin-3-yl]acetyl]-[(3,4-dichlorophenyl)methyl]amino]-N-methylpropanamide]	38
O=C(Cn1cnc2ccc(N3CCN(C(=O)C4CCOCC4)CC3)cc2c1=O)NCc1ccc(Cl)c(Cl)c1 [Example 66]	190
